Experimental data reported in ChEMBL document CHEMBL1201861, “Genomics of Drug Sensitity in Cancer screening data, Wellcome Trust Sanger Institute”.

Tests used:
Test in all cases: cells
[1] = tested on: HDLM-2; type: functional, cell-based; conditions: Homo sapiens;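 further: cell viability assay measuring suppression of HDLM-2 proliferation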
Description: SANGER: Inhibition of human HDLM-2 cell growth in a cell viability assay.

[2] = tested on: CAPAN-1; type: functional, cell-based, Homo sapiens; conditions: Homo sapiens, CAPAN-1;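 further: growth suppression of CAPAN-1 cells, read out by a cell viability assay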
Description: SANGER: Inhibition of human CAPAN-1 cell growth in a cell viability assay.

[3] = tested on: ABC-1; type: functional, cell-based, Homo sapiens; conditions: Homo sapiens, ABC-1;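 further: growth inhibition of human ABC-1 cells, read out by a cell viability assay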
Description: SANGER: Inhibition of human ABC-1 cell growth in a cell viability assay.

[4] = tested on: SK-MEL3; type: functional, cell-based, Homo sapiens, SK-MEL-3; conditions: Homo sapiens, SK-MEL3;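 further: growth inhibition of human SK-MEL-3 cells, read out with a cell viability assay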
Description: SANGER: Inhibition of human SK-MEL-3 cell growth in a cell viability assay.

[5] = tested on: UACC-257; type: functional, cell-based, Homo sapiens; conditions: Homo sapiens, UACC-257
Description: SANGER: Inhibition of human UACC-257 cell growth in a cell viability assay.

[6] = tested on: RPMI-8866; type: functional, cell-based; conditions: Homo sapiens
Description: SANGER: Inhibition of human RPMI-8866 cell growth in a cell viability assay.

[7] = tested on: BFTC-905; type: functional, cell-based, Homo sapiens; conditions: Homo sapiens, BFTC-905
Description: SANGER: Inhibition of human BFTC-905 cell growth in a cell viability assay.

[8] = tested on: COLO-668; type: functional, cell-based, Homo sapiens; conditions: Homo sapiens, COLO-668
Description: SANGER: Inhibition of human COLO-668 cell growth in a cell viability assay.

[9] = tested on: SK-N-FI; type: functional, cell-based, Homo sapiens; conditions: Homo sapiens, SK-N-FI;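 further: cell viability assay measuring growth inhibition of human SK-N-FI cells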
Description: SANGER: Inhibition of human SK-N-FI cell growth in a cell viability assay.

[10] = tested on: IST-MES1; type: functional, cell-based, Homo sapiens; conditions: Homo sapiens, IST-MES1;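 further: growth inhibition of IST-MES1 cells, measured with a cell viability assay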
Description: SANGER: Inhibition of human IST-MES1 cell growth in a cell viability assay.

[11] = tested on: BHY; type: functional, cell-based, Homo sapiens; conditions: Homo sapiens, BHY;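 further: cell growth inhibition read out by a viability assay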
Description: SANGER: Inhibition of human BHY cell growth in a cell viability assay.

[12] = tested on: NCI-H358; type: functional, cell-based, Homo sapiens; conditions: Homo sapiens, NCI-H358;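 further: growth inhibition of NCI-H358 human cells, read out with a cell viability assay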
Description: SANGER: Inhibition of human NCI-H358 cell growth in a cell viability assay.

[13] = tested on: NB17; type: functional, cell-based; conditions: Homo sapiens;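 further: growth inhibition of NB17 cells, read out with a cell viability assay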
Description: SANGER: Inhibition of human NB17 cell growth in a cell viability assay.

[14] = tested on: NCI-H1651; type: functional, cell-based, Homo sapiens; conditions: Homo sapiens, NCI-H1651;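 further: Read-out is a cell viability assay, with IC50 expressing inhibition of NCI-H1651 cell growth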
Description: SANGER: Inhibition of human NCI-H1651 cell growth in a cell viability assay.

[15] = tested on: NCI-H1304; type: functional, cell-based; conditions: Homo sapiens;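 further: growth inhibition of the cancer cell line, measured in a cell viability assay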
Description: SANGER: Inhibition of human NCI-H1304 cell growth in a cell viability assay.

[16] = tested on: NCI-H1355; type: functional, cell-based, Homo sapiens; conditions: Homo sapiens, NCI-H1355;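 further: growth inhibition of human NCI-H1355 cells, read out by a cell viability assay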
Description: SANGER: Inhibition of human NCI-H1355 cell growth in a cell viability assay.

[17] = tested on: QIMR-WIL; type: functional, cell-based; conditions: Homo sapiens;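 further: growth inhibition of QIMR-WIL cells, read out with a cell viability assay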
Description: SANGER: Inhibition of human QIMR-WIL cell growth in a cell viability assay.

[18] = tested on: COR-L105; type: functional, cell-based, Homo sapiens; conditions: Homo sapiens, COR-L105;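 further: cell growth inhibition determined with a viability assay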
Description: SANGER: Inhibition of human COR-L105 cell growth in a cell viability assay.

[19] = tested on: TE-10; type: functional, cell-based, Homo sapiens; conditions: Homo sapiens, TE-10;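 further: growth inhibition of TE-10 cells, measured by a cell viability assay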
Description: SANGER: Inhibition of human TE-10 cell growth in a cell viability assay.

[20] = tested on: NB69; type: functional, cell-based, Homo sapiens; conditions: Homo sapiens, NB69;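 further: growth inhibition of NB69 cells, determined by a cell viability assay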
Description: SANGER: Inhibition of human NB69 cell growth in a cell viability assay.

[21] = tested on: EW-18; type: functional, cell-based; conditions: Homo sapiens;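 further: growth inhibition of EW-18 cells, read out by a cell viability assay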
Description: SANGER: Inhibition of human EW-18 cell growth in a cell viability assay.

[22] = tested on: SNU-387; type: functional, cell-based, Homo sapiens; conditions: Homo sapiens, SNU-387
Description: SANGER: Inhibition of human SNU-387 cell growth in a cell viability assay.

[23] = tested on: U-118-MG; type: functional, cell-based, Homo sapiens; conditions: Homo sapiens, U-118-MG
Description: SANGER: Inhibition of human U-118-MG cell growth in a cell viability assay.

[24] = tested on: TE-5; type: functional, cell-based, Homo sapiens; conditions: Homo sapiens, TE-5;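 further: inhibition of cell growth, read out by a cell viability assay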
Description: SANGER: Inhibition of human TE-5 cell growth in a cell viability assay.

[25] = tested on: NCI-H23; type: functional, cell-based, Homo sapiens; conditions: Homo sapiens, NCI-H23;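 further: cell viability assay measuring growth inhibition of NCI-H23 cells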
Description: SANGER: Inhibition of human NCI-H23 cell growth in a cell viability assay.

[26] = tested on: A 172; type: functional, cell-based, Homo sapiens; conditions: Homo sapiens, A 172;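 further: growth inhibition of A172 cells, measured with a cell viability readout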
Description: SANGER: Inhibition of human A172 cell growth in a cell viability assay.

[27] = tested on: NCI-H209; type: functional, cell-based; conditions: Homo sapiens;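 further: growth inhibition of human NCI-H209 cells, measured by a cell viability assay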
Description: SANGER: Inhibition of human NCI-H209 cell growth in a cell viability assay.

[28] = tested on: OVCAR-8; type: functional, cell-based, Homo sapiens; conditions: Homo sapiens, OVCAR-8;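 further: growth inhibition of human OVCAR-8 cells, read out by a cell viability assay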
Description: SANGER: Inhibition of human OVCAR-8 cell growth in a cell viability assay.

[29] = tested on: MCF7; type: functional, cell-based, Homo sapiens; conditions: Homo sapiens, MCF7;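 further: growth inhibition of human MCF7 cells, read out with a cell viability assay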
Description: SANGER: Inhibition of human MCF7 cell growth in a cell viability assay.

[30] = tested on: MFM-223; type: functional, cell-based, Homo sapiens; conditions: Homo sapiens, MFM-223
Description: SANGER: Inhibition of human MFM-223 cell growth in a cell viability assay.

[31] = tested on: COR-L23; type: functional, cell-based, Homo sapiens; conditions: Homo sapiens, COR-L23;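 further: cell viability assay measuring how strongly compounds suppress growth of COR-L23 cells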
Description: SANGER: Inhibition of human COR-L23 cell growth in a cell viability assay.

[32] = tested on: CAL-27; type: functional, cell-based, Homo sapiens; conditions: Homo sapiens, CAL-27;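 further: Viability-based readout, IC50 reflecting inhibition of CAL-27 cell growth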
Description: SANGER: Inhibition of human CAL-27 cell growth in a cell viability assay.

[33] = tested on: EFO-27; type: functional, cell-based, Homo sapiens; conditions: Homo sapiens, EFO-27;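 further: growth inhibition of EFO-27 cells, read out with a cell viability assay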
Description: SANGER: Inhibition of human EFO-27 cell growth in a cell viability assay.

[34] = tested on: CCRF-CEM; type: functional, cell-based; conditions: Homo sapiens;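 further: inhibition of CCRF-CEM cell growth, measured by a cell viability assay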
Description: SANGER: Inhibition of human CCRF-CEM cell growth in a cell viability assay.

[35] = tested on: M059J; type: functional, cell-based, Homo sapiens; conditions: Homo sapiens, M059J;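 further: growth inhibition of M059J cells, read out with a cell viability assay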
Description: SANGER: Inhibition of human M059J cell growth in a cell viability assay.

[36] = tested on: EW-1; type: functional, cell-based, Homo sapiens; conditions: Homo sapiens, EW-1;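 further: growth inhibition of the human EW-1 cell line, read out by a cell viability assay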
Description: SANGER: Inhibition of human EW-1 cell growth in a cell viability assay.

[37] = tested on: SW1463; type: functional, cell-based, Homo sapiens; conditions: Homo sapiens, SW1463;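 further: growth inhibition of SW1463 cells, determined with a cell viability assay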
Description: SANGER: Inhibition of human SW1463 cell growth in a cell viability assay.

[38] = tested on: SCC-25; type: functional, cell-based, Homo sapiens; conditions: Homo sapiens, SCC-25;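 further: growth inhibition of SCC-25 cells, measured with a cell viability assay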
Description: SANGER: Inhibition of human SCC-25 cell growth in a cell viability assay.

[39] = tested on: HuP-T3; type: functional, cell-based, Homo sapiens; conditions: Homo sapiens, HuP-T3;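 further: HuP-T3 cell growth inhibition, read out with a cell viability assay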
Description: SANGER: Inhibition of human HuP-T3 cell growth in a cell viability assay.

[40] = tested on: NB6; type: functional, cell-based, Homo sapiens; conditions: Homo sapiens, NB6;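 further: growth inhibition of NB6 cells, read out by a cell viability assay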
Description: SANGER: Inhibition of human NB6 cell growth in a cell viability assay.

[41] = tested on: LNCaP-Clone-FGC; type: functional, cell-based, Homo sapiens; conditions: Homo sapiens, LNCaP-Clone-FGC
Description: SANGER: Inhibition of human LNCaP-Clone-FGC cell growth in a cell viability assay.

[42] = tested on: U2OS; type: functional, cell-based, Homo sapiens, U-2-OS; conditions: Homo sapiens, U2OS;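 further: growth inhibition of human U-2-OS cells, determined with a cell viability assay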
Description: SANGER: Inhibition of human U-2-OS cell growth in a cell viability assay.

[43] = tested on: SW1417; type: functional, cell-based, Homo sapiens; conditions: Homo sapiens, SW1417;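 further: growth inhibition of human SW1417 cells, read out with a cell viability assay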
Description: SANGER: Inhibition of human SW1417 cell growth in a cell viability assay.

[44] = tested on: HuP-T4; type: functional, cell-based, Homo sapiens; conditions: Homo sapiens, HuP-T4;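 further: cell viability assay measuring how much HuP-T4 cell growth is inhibited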
Description: SANGER: Inhibition of human HuP-T4 cell growth in a cell viability assay.

[45] = tested on: GMS-10; type: functional, cell-based, Homo sapiens; conditions: Homo sapiens, GMS-10;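 further: growth inhibition of GMS-10 cells, read out as cell viability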
Description: SANGER: Inhibition of human GMS-10 cell growth in a cell viability assay.

[46] = tested on: COR-L88; type: functional, cell-based; conditions: Homo sapiens;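 further: growth inhibition of COR-L88 cells, read out with a cell viability assay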
Description: SANGER: Inhibition of human COR-L88 cell growth in a cell viability assay.

[47] = tested on: IST-MEL1; type: functional, cell-based, Homo sapiens; conditions: Homo sapiens, IST-MEL1;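 further: growth inhibition of the cell line, read out with a cell viability assay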
Description: SANGER: Inhibition of human IST-MEL1 cell growth in a cell viability assay.

[48] = tested on: KYSE-180; type: functional, cell-based, Homo sapiens; conditions: Homo sapiens, KYSE-180;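 further: growth inhibition of KYSE-180 cells, read out with a cell viability assay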
Description: SANGER: Inhibition of human KYSE-180 cell growth in a cell viability assay.

[49] = tested on: GAMG; type: functional, cell-based, Homo sapiens; conditions: Homo sapiens, GAMG;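 further: cell growth inhibition measured by a viability assay in the GAMG human cell line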
Description: SANGER: Inhibition of human GAMG cell growth in a cell viability assay.

[50] = tested on: MLMA; type: functional, cell-based, Homo sapiens; conditions: Homo sapiens, MLMA;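 further: growth inhibition of MLMA cells (human), determined through a cell viability readout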
Description: SANGER: Inhibition of human MLMA cell growth in a cell viability assay.

## O=C1N=C(NCc2cccs2)S/C1=C\c1ccc2ncccc2c1
[1]
  IC50: > 5 µM
[2]
  IC50: > 5 µM
[3]
  IC50: > 5 µM
[4]
  IC50: > 5 µM
[5]
  IC50: > 5 µM
[6]
  IC50: > 5 µM
[7]
  IC50: > 5 µM
[8]
  IC50: > 5 µM
[9]
  IC50: > 5 µM
[10]
  IC50: > 5 µM
[11]
  IC50: > 5 µM
[12]
  IC50: > 5 µM
[13]
  IC50: > 5 µM
[14]
  IC50: > 5 µM
[15]
  IC50: > 5 µM
[16]
  IC50: > 5 µM
[17]
  IC50: > 5 µM
[18]
  IC50: > 5 µM
[19]
  IC50: > 5 µM
[20]
  IC50: > 5 µM
[21]
  IC50: > 5 µM
[22]
  IC50: > 5 µM
[23]
  IC50: > 5 µM
[24]
  IC50: > 5 µM
[25]
  IC50: > 5 µM
[26]
  IC50: > 5 µM
[27]
  IC50: > 5 µM
[28]
  IC50: > 5 µM
[29]
  IC50: > 5 µM
[30]
  IC50: > 5 µM
[31]
  IC50: > 5 µM
[32]
  IC50: > 5 µM
[33]
  IC50: > 5 µM
[34]
  IC50: > 5 µM
[35]
  IC50: > 5 µM
[36]
  IC50: > 5 µM
[37]
  IC50: > 5 µM
[38]
  IC50: > 5 µM
[39]
  IC50: > 5 µM
[40]
  IC50: > 5 µM
[41]
  IC50: > 5 µM
[42]
  IC50: > 5 µM
[43]
  IC50: > 5 µM
[44]
  IC50: > 5 µM
[45]
  IC50: > 5 µM
[46]
  IC50: 3.48 µM
[47]
  IC50: > 5 µM
[48]
  IC50: > 5 µM
[49]
  IC50: > 5 µM
[50]
  IC50: > 5 µM

## O=c1cc(-c2cccc3c2Sc2ccccc2S3)oc(N2CCOCC2)c1 [KU-55933]
[1]
  IC50: > 10 µM
[2]
  IC50: > 10 µM
[3]
  IC50: > 10 µM
[4]
  IC50: 8.29 µM
[5]
  IC50: > 10 µM
[6]
  IC50: > 10 µM
[7]
  IC50: > 10 µM
[8]
  IC50: > 10 µM
[9]
  IC50: > 10 µM
[10]
  IC50: > 10 µM
[11]
  IC50: > 10 µM
[12]
  IC50: > 10 µM
[13]
  IC50: > 10 µM
[14]
  IC50: > 10 µM
[15]
  IC50: > 10 µM
[16]
  IC50: > 10 µM
[17]
  IC50: > 10 µM
[18]
  IC50: > 10 µM
[19]
  IC50: > 10 µM
[20]
  IC50: > 10 µM
[22]
  IC50: > 10 µM
[23]
  IC50: > 10 µM
[24]
  IC50: > 10 µM
[25]
  IC50: > 10 µM
[26]
  IC50: > 10 µM
[28]
  IC50: > 10 µM
[29]
  IC50: > 10 µM
[30]
  IC50: > 10 µM
[31]
  IC50: > 10 µM
[32]
  IC50: > 10 µM
[33]
  IC50: > 10 µM
[34]
  IC50: > 10 µM
[35]
  IC50: > 10 µM
[36]
  IC50: > 10 µM
[37]
  IC50: > 10 µM
[38]
  IC50: > 10 µM
[39]
  IC50: > 10 µM
[40]
  IC50: > 10 µM
[41]
  IC50: > 10 µM
[42]
  IC50: > 10 µM
[43]
  IC50: > 10 µM
[44]
  IC50: > 10 µM
[45]
  IC50: > 10 µM
[47]
  IC50: > 10 µM
[48]
  IC50: > 10 µM
[49]
  IC50: > 10 µM
[50]
  IC50: > 10 µM

## COc1ccc(C2=N[C@@H](c3ccc(Cl)cc3)[C@@H](c3ccc(Cl)cc3)N2C(=O)N2CCNC(=O)C2)c(OC(C)C)c1 [NUTLIN-3]
[1]
  IC50: > 8 µM
[2]
  IC50: > 8 µM
[3]
  IC50: > 8 µM
[4]
  IC50: > 8 µM
[5]
  IC50: > 8 µM
[6]
  IC50: 2.56 µM
[7]
  IC50: > 8 µM
[8]
  IC50: > 8 µM
[9]
  IC50: > 8 µM
[10]
  IC50: 4.41 µM
[11]
  IC50: > 8 µM
[12]
  IC50: 7.45 µM
[13]
  IC50: 4.32 µM
[14]
  IC50: > 8 µM
[15]
  IC50: > 8 µM
[16]
  IC50: > 8 µM
[17]
  IC50: 1.61 µM
[18]
  IC50: > 8 µM
[19]
  IC50: > 8 µM
[20]
  IC50: 2.65 µM
[21]
  IC50: > 8 µM
[22]
  IC50: > 8 µM
[23]
  IC50: > 8 µM
[24]
  IC50: > 8 µM
[25]
  IC50: > 8 µM
[26]
  IC50: 2.68 µM
[27]
  IC50: > 8 µM
[28]
  IC50: > 8 µM
[29]
  IC50: 5.44 µM
[30]
  IC50: > 8 µM
[31]
  IC50: > 8 µM
[32]
  IC50: > 8 µM
[33]
  IC50: > 8 µM
[34]
  IC50: > 8 µM
[35]
  IC50: > 8 µM
[36]
  IC50: > 8 µM
[37]
  IC50: > 8 µM
[38]
  IC50: > 8 µM
[39]
  IC50: > 8 µM
[40]
  IC50: > 8 µM
[41]
  IC50: 2.64 µM
[42]
  IC50: 2.91 µM
[43]
  IC50: > 8 µM
[44]
  IC50: > 8 µM
[45]
  IC50: > 8 µM
[46]
  IC50: > 8 µM
[47]
  IC50: > 8 µM
[48]
  IC50: > 8 µM
[49]
  IC50: > 8 µM
[50]
  IC50: > 8 µM
